Measurements from patent US10700298B2, “OLED display panel and electronic device comprising the same” (SHANGHAI TIANMA AM-OLED CO., LTD., priority 2016, dated 2020).
In brackets after ≈: the same amount, converted by molar mass.

How the values were obtained:
[1] = in words; material disclosed in CN103108859; cited from earlier work
[2] = Solubility of the hole transporting material in NMP; format: physicochemical; conditions: N-methylpyrrolidone

| Compound | solubility in NMP [2] | solubility [1] |
| --- | --- | --- |
| CC1(C)c2ccccc2-c2ccc(N(c3ccc4c(c3)C3(c5ccccc5-c5ccccc53)c3ccccc3-4)c3ccccc3-c3ccccc3)cc21 | – | good |
| c1ccc(-c2ccc(N(c3ccc(-c4ccccc4)cc3)c3ccc(-c4ccc(N(c5ccc(-c6ccccc6)cc5)c5ccc(-c6ccccc6)cc5)cc4)cc3)cc2)cc1 [Comparative Example 1, reference compound] | 1.2 mg/mL (≈ 1.51 mM) | – |
| c1ccc(-c2ccc(N(c3ccc(-c4ccccc4)cc3)c3ccc(-c4ccc(N(c5ccc(-c6ccccc6)cc5)c5ccc(-c6ccccc6)cc5)c5c4CCCC5)cc3)cc2)cc1 [Comparative Example 3, reference compound] | 2.5 mg/mL (≈ 2.95 mM) | – |
| Cc1cccc(-c2ccc(N(c3ccc(-c4cccc(C)c4)cc3)c3ccc(-c4cc(C)c(N(c5ccc(-c6cccc(C)c6)cc5)c5ccc(-c6cccc(C)c6)cc5)c(C)c4)cc3)cc2)c1 [Example 1] | 15 mg/mL (≈ 17.1 mM) | – |
| CC(C)c1ccc(-c2ccc(N(c3ccc(-c4ccccc4)cc3)c3ccc(-c4ccc(N(c5ccc(-c6ccccc6)cc5)c5ccc(-c6ccc(C(C)C)cc6)cc5)c(C(C)C)c4)cc3)cc2)cc1 [Example 3] | 12 mg/mL (≈ 13.1 mM) | – |
| Cc1cccc(-c2ccc(N(c3ccc(-c4cccc5c4CCCC5)cc3)c3ccc(-c4ccc(N(c5ccc(-c6cccc(C)c6)cc5)c5ccc(-c6cccc7c6CCCC7)cc5)c5c4CCCC5)cc3)cc2)c1 [Example 10] | 19 mg/mL (≈ 19.3 mM) | – |
| Cc1cc(N(c2ccc(-c3ccccc3)cc2)c2ccc(-c3cccc4c3CCCC4)cc2)ccc1-c1ccc(N(c2ccc(-c3ccccc3)cc2)c2ccc(-c3cccc4c3CCCC4)cc2)cc1 [Example 11] | 15 mg/mL (≈ 16.4 mM) | – |

Further lines, with some results ahead:

| solubility in NMP [2] | Compound | solubility [1] |
| --- | --- | --- |
| 25 mg/mL (≈ 26.8 mM) | Cc1cccc(-c2ccc(N(c3ccc(-c4cc(C)c(N(c5ccc(-c6cccc(C)c6)c(C)c5)c5ccc(-c6cccc(C)c6)c(C)c5)c(C)c4)cc3)c3ccc(-c4cccc(C)c4)c(C)c3)cc2C)c1 [Example 2] | – |
| 12 mg/mL (≈ 13.5 mM) | Cc1cc(N(c2ccc(-c3ccccc3)cc2)c2ccc(-c3ccc(C(C)C)cc3)cc2)ccc1-c1ccc(N(c2ccc(-c3ccccc3)cc2)c2ccc(-c3ccc(C(C)C)cc3)cc2)cc1 [Example 4] | – |
| 35 mg/mL (≈ 39.4 mM) | Cc1ccc(-c2ccc(N(c3ccc(-c4cccc(C)c4)cc3)c3ccc(-c4ccc(N(c5ccc(-c6ccccc6)cc5)c5ccc(-c6ccc(C)cc6)cc5)c5c4CCCC5)cc3)cc2)cc1 [Example 9] | – |
| 21 mg/mL (≈ 21.4 mM) | Cc1ccccc1-c1ccc(N(c2ccc(-c3ccccc3)cc2)c2ccc(-c3ccc(N(c4ccc(-c5ccccc5)cc4)c4ccc(-c5ccccc5C)c5c4CCCC5)c4c3CCCC4)cc2)c2c1CCCC2 [Example 12] | – |
